Results from patent publication US9708314B2, “Heterocyclic amide compound” (NISSAN CHEMICAL INDUSTRIES, LTD., priority 2013, dated 2017).

Experiments:
Type in all cases: in vivo
[1] = system: Beta vulgaris ssp. vulgaris; assay: Test Example 4: effect on crop by application to foliage (diluvial soil, plastic box); conditions: for f (Beta vulgaris ssp. vulgaris) effect on crop: application to foliage, application herbicide amount 320 g/ha
Outline: (§1)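 Emulsion-formulated compound, diluted to a predetermined g/ha dose, applied by small sprayer to leaves and stems of 14-day-old seedlings grown in sterilized diluvial soil. Effect rated on 0–5 herbicidal-ratio scale three weeks on.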

Triticum aestivum = assay: as above; conditions: for e (Triticum aestivum) effect on crop: application to foliage, application herbicide amount 320 g/ha
Outline: as §1

Brassica campestris L. = assay: as above; conditions: for g (Brassica campestris L.) effect on crop: application to foliage, application herbicide amount 320 g/ha
Outline: as §1

[2] = system: directly sowed Oryza sativa; assay: as above; conditions: for d (directly sowed Oryza sativa) effect on crop: application to foliage, application herbicide amount 320 g/ha
Outline: as §1

Glycine max = assay: as above; conditions: for c (Glycine max) effect on crop: application to foliage, application herbicide amount 320 g/ha
Outline: as §1

Zea mays = assay: as above; conditions: for b (Zea mays) effect on crop: application to foliage, application herbicide amount 320 g/ha
Outline: as §1

[3] = system: Echinochloa crus-galli var. crus-galli; assay: Test Example 4: herbicidal effect by application to foliage (diluvial soil, plastic box); conditions: for H (Echinochloa crus-galli var. crus-galli) herbicidal effect: application to foliage, application herbicide amount 320 g/ha
Outline: as §1

Avena fatua = assay: as above; conditions: for I (Avena fatua) herbicidal effect: application to foliage, application herbicide amount 320 g/ha
Outline: as §1

Digitaria ciliaris = assay: as above; conditions: for F (Digitaria ciliaris) herbicidal effect: application to foliage, application herbicide amount 320 g/ha
Outline: as §1

Lolium multiflorum Lam. = assay: as above; conditions: for K (Lolium multiflorum Lam.) herbicidal effect: application to foliage, application herbicide amount 320 g/ha
Outline: as §1

Setaria viridis = assay: as above; conditions: for G (Setaria viridis) herbicidal effect: application to foliage, application herbicide amount 320 g/ha
Outline: as §1

Apera spica-venti. = assay: as above; conditions: for L (Apera spica-venti.) herbicidal effect: application to foliage, application herbicide amount 320 g/ha
Outline: as §1

Abutilon theophrasti = assay: as above; conditions: for M (Abutilon theophrasti) herbicidal effect: application to foliage, application herbicide amount 320 g/ha
Outline: as §1

Veronica persica = assay: as above; conditions: for R (Veronica persica) herbicidal effect: application to foliage, application herbicide amount 320 g/ha
Outline: as §1

Alopecurus myosuroides = assay: as above; conditions: for J (Alopecurus myosuroides) herbicidal effect: application to foliage, application herbicide amount 320 g/ha
Outline: as §1

Galium spurium = assay: as above; conditions: for Q (Galium spurium) herbicidal effect: application to foliage, application herbicide amount 320 g/ha
Outline: as §1

Chenopodium album = assay: as above; conditions: for O (Chenopodium album) herbicidal effect: application to foliage, application herbicide amount 320 g/ha
Outline: as §1

[4] = system: Echinochloa oryzacola Vasing.; assay: Test Example 2: herbicidal activity, application during weed generation in submerged conditions; conditions: Eighteenth Table; application herbicide amount 320 g/ha
Outline: (§2)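 Post-emergence application under submerged conditions: water-diluted emulsion dosed onto the water surface (g/ha) when weeds reach one- to two-leaf stage. Soil flooded to 4 cm; greenhouse 25–30 °C. Herbicidal ratio graded in six classes, 0 (≤5%) to 5 (≥90%), at three weeks.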

Monochoria vaginalis = assay: as above; conditions: Eighteenth Table; application herbicide amount 320 g/ha
Outline: as §2

Scirpus juncoides = assay: as above; conditions: Eighteenth Table; application herbicide amount 320 g/ha
Outline: as §2

[5] = Application herbicide amount 320 g/ha, effect on crop
[6] = Application herbicide amount 320 g/ha

Structure (SMILES): CC[S+]([O-])c1nnc2c(C(=O)Nc3nnc(C)o3)ccc(C(F)(F)F)n12 (centres unmarked) [1-034]
- f (Beta vulgaris ssp. vulgaris) effect on crop [1]: 5 (Herbicidal ratio of 90% or more (almost completely withered))
- e (Triticum aestivum) effect on crop (Triticum aestivum): 2 (Herbicidal ratio of 20% or more and less than 40%)
- g (Brassica campestris L.) effect on crop (Brassica campestris L.): 4 (Herbicidal ratio of 70% or more and less than 90%)
- d (directly sowed Oryza sativa) effect on crop [2]: 4 (Herbicidal ratio of 70% or more and less than 90%)
- c (Glycine max) effect on crop (Glycine max): 1 (Herbicidal ratio of 5% or more and less than 20%)
- b (Zea mays) effect on crop (Zea mays): 5 (Herbicidal ratio of 90% or more (almost completely withered))
- H (Echinochloa crus-galli var. crus-galli) herbicidal effect [3]: 5 (Herbicidal ratio of 90% or more (almost completely withered))
- I (Avena fatua) herbicidal effect (Avena fatua): 3 (Herbicidal ratio of 40% or more and less than 70%)
- F (Digitaria ciliaris) herbicidal effect (Digitaria ciliaris): 5 (Herbicidal ratio of 90% or more (almost completely withered))
- K (Lolium multiflorum Lam.) herbicidal effect (Lolium multiflorum Lam.): 3 (Herbicidal ratio of 40% or more and less than 70%)
- G (Setaria viridis) herbicidal effect (Setaria viridis): 5 (Herbicidal ratio of 90% or more (almost completely withered))
- L (Apera spica-venti.) herbicidal effect (Apera spica-venti.): 3 (Herbicidal ratio of 40% or more and less than 70%)
- M (Abutilon theophrasti) herbicidal effect (Abutilon theophrasti): 5 (Herbicidal ratio of 90% or more (almost completely withered))
- R (Veronica persica) herbicidal effect (Veronica persica): 5 (Herbicidal ratio of 90% or more (almost completely withered))
- J (Alopecurus myosuroides) herbicidal effect (Alopecurus myosuroides): 1 (Herbicidal ratio of 5% or more and less than 20%)
- Q (Galium spurium) herbicidal effect (Galium spurium): 3 (Herbicidal ratio of 40% or more and less than 70%)
- O (Chenopodium album) herbicidal effect (Chenopodium album): 5 (Herbicidal ratio of 90% or more (almost completely withered))
- A (Echinochloa oryzicola Vasing.) herbicidal ratio grade [4]: 4 (Herbicidal ratio of 70% or more and less than 90%)
- C (Monochoria vaginalis) herbicidal ratio grade (Monochoria vaginalis): 4 (Herbicidal ratio of 70% or more and less than 90%)
- B (Scirpus juncoides) herbicidal ratio grade (Scirpus juncoides): 3 (Herbicidal ratio of 40% or more and less than 70%)

Structure (SMILES): CSc1nnc2c(C(=O)Nc3nnc(C)o3)ccc(C(F)(F)F)n12 [1-018, N-(5-Methyl-1,3,4-oxadiazol-2-yl)-3-(methylthio)-5-(trifluoromethyl)-[1,2,4]triazol o[4,3-a]pyridine-8-carboxamide]
- f (Beta vulgaris ssp. vulgaris) effect on crop [1]: 1 (Herbicidal ratio of 5% or more and less than 20%)
- e (Triticum aestivum) effect on crop (Triticum aestivum): 0 (Herbicidal ratio of 5% or less (almost no effect))
- g (Brassica campestris L.) effect on crop (Brassica campestris L.): 0 (Herbicidal ratio of 5% or less (almost no effect))
- d (directly sowed Oryza sativa) effect on crop [2]: 0 (Herbicidal ratio of 5% or less (almost no effect))
- c (Glycine max) effect on crop (Glycine max): 0 (Herbicidal ratio of 5% or less (almost no effect))
- b (Zea mays) effect on crop (Zea mays): 0 (Herbicidal ratio of 5% or less (almost no effect))
- H (Echinochloa crus-galli var. crus-galli) herbicidal effect [3]: 1 (Herbicidal ratio of 5% or more and less than 20%)
- I (Avena fatua) herbicidal effect (Avena fatua): 0 (Herbicidal ratio of 5% or less (almost no effect))
- F (Digitaria ciliaris) herbicidal effect (Digitaria ciliaris): 0 (Herbicidal ratio of 5% or less (almost no effect))
- K (Lolium multiflorum Lam.) herbicidal effect (Lolium multiflorum Lam.): 0 (Herbicidal ratio of 5% or less (almost no effect))
- G (Setaria viridis) herbicidal effect (Setaria viridis): 2 (Herbicidal ratio of 20% or more and less than 40%)
- L (Apera spica-venti.) herbicidal effect (Apera spica-venti.): 0 (Herbicidal ratio of 5% or less (almost no effect))
- M (Abutilon theophrasti) herbicidal effect (Abutilon theophrasti): 3 (Herbicidal ratio of 40% or more and less than 70%)
- R (Veronica persica) herbicidal effect (Veronica persica): 4 (Herbicidal ratio of 70% or more and less than 90%)
- J (Alopecurus myosuroides) herbicidal effect (Alopecurus myosuroides): 0 (Herbicidal ratio of 5% or less (almost no effect))
- Q (Galium spurium) herbicidal effect (Galium spurium): 0 (Herbicidal ratio of 5% or less (almost no effect))
- O (Chenopodium album) herbicidal effect (Chenopodium album): 5 (Herbicidal ratio of 90% or more (almost completely withered))
- A (Echinochloa oryzicola Vasing.) herbicidal ratio grade [4]: 0 (Herbicidal ratio of 5% or less (almost no effect))
- C (Monochoria vaginalis) herbicidal ratio grade (Monochoria vaginalis): 0 (Herbicidal ratio of 5% or less (almost no effect))
- B (Scirpus juncoides) herbicidal ratio grade (Scirpus juncoides): 2 (Herbicidal ratio of 20% or more and less than 40%)

Structure (SMILES): Cc1nnc(NC(=O)c2ccc(C(F)(F)F)n3c(C=O)nnc23)o1 [1-068]
- f [1, 5]: 4 (Herbicidal ratio of 70% or more and less than 90%)
- e (Triticum aestivum; [5]): 1 (Herbicidal ratio of 5% or more and less than 20%)
- g (Brassica campestris L.; [5]): 4 (Herbicidal ratio of 70% or more and less than 90%)
- d [2, 5]: 3 (Herbicidal ratio of 40% or more and less than 70%)
- c (Glycine max; [5]): 0 (Herbicidal ratio of 5% or less (almost no effect))
- b (Zea mays; [5]): 2 (Herbicidal ratio of 20% or more and less than 40%)
- H [3, 6]: 5 (Herbicidal ratio of 90% or more (almost completely withered))
- I (Avena fatua; [6]): 1 (Herbicidal ratio of 5% or more and less than 20%)
- F (Digitaria ciliaris; [6]): 5 (Herbicidal ratio of 90% or more (almost completely withered))
- K (Lolium multiflorum Lam.; [6]): 1 (Herbicidal ratio of 5% or more and less than 20%)
- G (Setaria viridis; [6]): 4 (Herbicidal ratio of 70% or more and less than 90%)
- L (Apera spica-venti.; [6]): 1 (Herbicidal ratio of 5% or more and less than 20%)
- M (Abutilon theophrasti; [6]): 3 (Herbicidal ratio of 40% or more and less than 70%)
- R (Veronica persica; [6]): 4 (Herbicidal ratio of 70% or more and less than 90%)
- J (Alopecurus myosuroides; [6]): 1 (Herbicidal ratio of 5% or more and less than 20%)
- Q (Galium spurium; [6]): 3 (Herbicidal ratio of 40% or more and less than 70%)
- O (Chenopodium album; [6]): 5 (Herbicidal ratio of 90% or more (almost completely withered))
- A (Echinochloa oryzicola Vasing.) herbicidal ratio grade [4]: 2 (Herbicidal ratio of 20% or more and less than 40%)
- C (Monochoria vaginalis) herbicidal ratio grade (Monochoria vaginalis): 2 (Herbicidal ratio of 20% or more and less than 40%)
- B (Scirpus juncoides) herbicidal ratio grade (Scirpus juncoides): 2 (Herbicidal ratio of 20% or more and less than 40%)

Structure (SMILES): CCSc1nnc2c(C(=O)Nc3nnc(C)o3)ccc(C(F)(F)F)n12 [1-032]
- f (Beta vulgaris ssp. vulgaris) effect on crop [1]: 5 (Herbicidal ratio of 90% or more (almost completely withered))
- e (Triticum aestivum) effect on crop (Triticum aestivum): 1 (Herbicidal ratio of 5% or more and less than 20%)
- g (Brassica campestris L.) effect on crop (Brassica campestris L.): 4 (Herbicidal ratio of 70% or more and less than 90%)
- d (directly sowed Oryza sativa) effect on crop [2]: 4 (Herbicidal ratio of 70% or more and less than 90%)
- c (Glycine max) effect on crop (Glycine max): 0 (Herbicidal ratio of 5% or less (almost no effect))
- b (Zea mays) effect on crop (Zea mays): 0 (Herbicidal ratio of 5% or less (almost no effect))
- H (Echinochloa crus-galli var. crus-galli) herbicidal effect [3]: 5 (Herbicidal ratio of 90% or more (almost completely withered))
- I (Avena fatua) herbicidal effect (Avena fatua): 2 (Herbicidal ratio of 20% or more and less than 40%)
- F (Digitaria ciliaris) herbicidal effect (Digitaria ciliaris): 5 (Herbicidal ratio of 90% or more (almost completely withered))
- K (Lolium multiflorum Lam.) herbicidal effect (Lolium multiflorum Lam.): 1 (Herbicidal ratio of 5% or more and less than 20%)
- G (Setaria viridis) herbicidal effect (Setaria viridis): 5 (Herbicidal ratio of 90% or more (almost completely withered))
- L (Apera spica-venti.) herbicidal effect (Apera spica-venti.): 2 (Herbicidal ratio of 20% or more and less than 40%)
- M (Abutilon theophrasti) herbicidal effect (Abutilon theophrasti): 5 (Herbicidal ratio of 90% or more (almost completely withered))
- R (Veronica persica) herbicidal effect (Veronica persica): 4 (Herbicidal ratio of 70% or more and less than 90%)
- J (Alopecurus myosuroides) herbicidal effect (Alopecurus myosuroides): 1 (Herbicidal ratio of 5% or more and less than 20%)
- Q (Galium spurium) herbicidal effect (Galium spurium): 2 (Herbicidal ratio of 20% or more and less than 40%)
- O (Chenopodium album) herbicidal effect (Chenopodium album): 5 (Herbicidal ratio of 90% or more (almost completely withered))
- A (Echinochloa oryzicola Vasing.) herbicidal ratio grade [4]: 4 (Herbicidal ratio of 70% or more and less than 90%)
- C (Monochoria vaginalis) herbicidal ratio grade (Monochoria vaginalis): 3 (Herbicidal ratio of 40% or more and less than 70%)
- B (Scirpus juncoides) herbicidal ratio grade (Scirpus juncoides): 3 (Herbicidal ratio of 40% or more and less than 70%)
